Test results as given in patent US7956194B2, “Microbiocidal (E.G. fungicidal) 1,2,3-triazole derivatives” (Syngenta Crop Protection, Inc., priority 2002, dated 2011).

melting point	Structure (SMILES)
94.6 to 95.4 °C	CC(C)CC(C)c1ccccc1NC(=O)c1nn(C)nc1C(F)(F)F (centres unmarked) [Compound 2.219, 2-methyl-5-trifluoromethyl-2H-1,2,3-triazole-4-carboxylic acid [2-(1,3-dimethyl-butyl)-phenyl]-amide]
155 to 156 °C	Cn1nc(C(=O)Nc2cc(Cl)ccc2-c2ccccc2)c(C(F)F)n1 [Compound 3.017, 5-difluoromethyl-2-methyl-2H-1,2,3-triazole-4-carboxylic acid (4-chloro-biphenyl-2-yl)-amide]
